“Also recorded” adds a separate entry of the source.
What was measured:
Format in all cases: in vivo, rat
[1] = test system: Long-Evans male rats fed a 37% ethanol liquid diet; assay: Lipid peroxidation in liver by HNE immunostaining; conditions: chronic ethanol fed rats
Experimental: (§1) An isocaloric (sucrose substituted for ethanol) diet was administered to pair fed control animals. After three weeks, both groups of rats were injected with either PPAR-α, γ, or δ agonists or saline as a control. […] The […] were given IP injections twice a week. At 6 weeks, the animals underwent 2/3 partial hepatectomy. The removed liver was used for histology, measurement of lipid peroxidation, DNA damage and insulin/IGF signaling as described below. Following ⅔ hepatectomy, the liver remnants were harvested 18, 24, 30 and 48 hours later to assess the regenerative response. To do this, animals were injected IP with BrdU 2 hours before harvest to measure its incorporation into hepatic nuclei as an index of DNA synthesis.
(§2) Paraffin sections (8 μm thick) were immunostained with monoclonal antibodies to 8-hydroxy-deoxyguanosine (8-OHdG) (Oxis Research) or 4-hydroxynonenol (HNE) (Chemicon International, Temecula, Calif.), to detect DNA damage and lipid peroxidation, respectively. Prior to immunostaining, the deparaffinized, re-hydrated sections were treated with 0.1 mg/ml saponin in phosphate buffered saline (10 mM sodium phosphate, 0.9% NaCl, pH 7.4; PBS) for 20 minutes at room temperature, followed by 3% hydrogen peroxide in methanol for 10 minutes to quench endogenous peroxidase activity, and then a 30-minute incubation in SuperBlock-TBS (Pierce Chemical Co., Rockford, Ill.) to block non-specific binding sites. The tissue sections were then incubated overnight at 4° C. with 0.5-1 μg/ml of primary antibody. […] The tissue sections were counterstained with hematoxylin, preserved under coverglass, and examined by light microscopy.

AAH and GAPDH = assay: ELISA of AAH and GAPDH immunoreactivity in liver
Description: Chow fed control rats were also studied. Rats were monitored daily to ensure equivalent food consumption and maintenance of body weight. […] At the conclusion of the experiment, rats were anesthetized with vaporized isofluorane (SurgiVet, Inc. Waukesha, Wis.), and liver and blood were harvested for analysis. Liver tissue samples were immersion fixed in Histochoice (Amresco Corp., Solon, Ohio) and embedded in paraffin. Adjacent histological sections were stained with Hematoxylin and Eosin or Gomori's Trichrome and examined under code. In addition, liver tissue samples were snap-frozen in a dry ice methanol bath and then stored at −80° C. for later mRNA and protein studies. Throughout the experiment, rats were housed under humane conditions and kept on a 12-hour light/dark cycle with free access to food. All experiments were performed in accordance with protocols that conform to guidelines established by the National Institutes of Health and were approved by Institutional Animal Care and Use Committee at the Lifespan-Rhode Island Hospital.
ELISAs were used to measure immunoreactivity corresponding to AAH, GAPDH and β-actin (negative control). ELISAs were performed in 96-well opaque polystyrene plates (Nalge Nunc International, Rochester, N.Y.). RIPA protein extracts diluted in TBS (40 ng/100 μl) were adsorbed to the bottoms of the wells by overnight incubation at 4° C. After rinsing in TBS, the wells were blocked for 4 hours with 250 μl/well of 2% BSA in TBS. The proteins were then incubated with primary antibody (0.01-0.1 μg/ml) for 1 hour at room temperature. Immunoreactivity was detected with HRP-conjugated secondary antibody (1:10000; Pierce) and the Amplex Red soluble fluorophore (Molecular Probes). […] Binding specificity was determined from parallel negative control incubations with non-relevant antibodies, or with the primary or secondary antibody omitted. The mean levels of specific AAH, GAPDH, and β-actin immunoreactivity were used for inter-group statistical comparisons.

[2] = test system: Long-Evans male rats fed a 37% ethanol liquid diet; assay: DNA damage in liver by 8-OHdG immunostaining; conditions: chronic ethanol fed rats
Experimental: as §1, §2

Row | Compound | hepatic lipid peroxidation (HNE immunostaining) [1] | AAH expression (ELISA) (AAH and GAPDH; control livers) | GAPDH expression (ELISA) (AAH and GAPDH; control livers) | AAH expression (ELISA) (AAH and GAPDH; ethanol-exposed livers) | GAPDH expression (ELISA) (AAH and GAPDH; ethanol-exposed livers) | DNA damage (8-OHdG immunoreactivity) [2]
1 | CC(C)(Sc1ccc(CCN(CCCCC2CCCCC2)C(=O)NC2CCCCC2)cc1)C(=O)O [PPAR-α, GW7647] | substantially improved | no significant effect | no significant effect | no significant effect | no significant effect | protective effect
2 | CC(C)C[C@H](NC(=O)OCC1c2ccccc2-c2ccccc21)C(=O)O [PPAR-γ, F-L-Leu] | substantially improved | slightly reduced | – | – | significantly increased | protective effect
3 | CCCc1c(OCCCOc2ccc(OCC(=O)O)cc2)ccc(C(C)=O)c1O [PPAR-δ, L-165,041] | substantially improved | slightly reduced | – | – | significantly increased | most prominent protective effect; also recorded: superior to the α and γ agents in preventing hepatocyte damage

— patent US9717719B2, “Treatment, prevention, and reversal of alcohol-induced liver disease” (Rhode Island Hospital, priority 2006, dated 2017)
